Earlier results in patent US20080262061A1, “COMPOSITION AND USE OF A LIQUID FUNGICIDAL FORMULATION OF MYCLOBUTANIL OR TEBUCONAZOLE FUNGICIDE” (HELENA HOLDING COMPANY, priority 2007, published 2008).

Details: background statement

For CC(C)(C)C(O)(CCc1ccc(Cl)cc1)Cn1cncn1 (racemic) [tebuconazole, (RS)-1-p-chlorophenyl-4,4-dimethyl-3-(1H-1,2,4-triazol-1-ylmethyl)═pentan-3-ol], the water solubility is given as “not significantly water soluble”.
For CCCCC(C#N)(Cn1cncn1)c1ccc(Cl)cc1 (centres unmarked) [Myclobutanil, 2-p-chlorophenyl-2-(1H-1,2,4-triazol-1-ylmethyl)hexanenitrile], the water solubility is given as “not significantly water soluble”.
